One series addresses Recombinant CatD (Homo sapiens (Human), UniProt P07339). The series can be described thus: In vitro enzymatic Cathepsin D (CatD) FRET assay. Format: biochemical. Particulars: pH 3.5, read-out: Cat D Enzyme IC50.
The next series addresses human recombinant BACE2 (Homo sapiens (Human), UniProt Q9Y5Z0). Kind of series: In vitro enzymatic BACE2 FRET assay. The format is biochemical. Particulars: pH 4.5, read-out: BACE2 Enzyme IC50.
For series [1], the target named is T1, BACE1 (Homo sapiens (Human), UniProt P56817). Kind of series: In vitro enzymatic BACE1 FRET assay. Format: biochemical. Particulars: pH 4.5, read-out: BACE1 Enzyme IC50.
Target sequence in this assay (P56817 46-501): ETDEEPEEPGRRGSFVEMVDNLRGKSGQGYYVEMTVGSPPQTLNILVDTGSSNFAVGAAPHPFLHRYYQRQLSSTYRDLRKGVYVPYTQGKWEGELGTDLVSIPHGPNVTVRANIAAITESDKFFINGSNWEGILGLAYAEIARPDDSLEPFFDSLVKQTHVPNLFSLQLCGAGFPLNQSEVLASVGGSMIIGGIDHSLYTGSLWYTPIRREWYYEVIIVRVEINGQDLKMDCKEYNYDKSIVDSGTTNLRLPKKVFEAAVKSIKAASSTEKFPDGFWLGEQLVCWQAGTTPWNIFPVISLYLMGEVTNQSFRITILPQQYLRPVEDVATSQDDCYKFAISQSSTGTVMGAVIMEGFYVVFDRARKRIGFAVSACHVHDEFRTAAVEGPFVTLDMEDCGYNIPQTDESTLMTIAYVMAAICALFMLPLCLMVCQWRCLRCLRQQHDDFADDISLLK
Series [2] concerns the target T1, BACE1. The series can be described thus: In vitro BACE1 cell-based assay (Aβ40 in conditioned medium of cells stably expressing APP, HTRF). The procedure: In Vitro BACE1 Cell-Based Assay
The cell-based assay measures inhibition or reduction of Aβ40 in conditioned medium of test compound treated cells expressing amyloid precursor protein. Cells stably expressing Amyloid Precursor Protein (APP) were plated at a density of 45K cells/well in 384 well plates (Corning/BioCoat 354663). The test compounds were then added to cells in 22-point dose response concentrations with the starting concentration being 62.5 μM. The compounds were diluted from stock solutions in DMSO and the final DMSO concentration of the test compounds on cells was 0.625%. The cells were cultivated overnight at 37° C. and 5% CO2 in DMEM supplemented with 10% FBS. After 24 h of incubation with the test compounds, the conditioned media was collected and the Aβ40 levels were determined using HTRF (Homogeneous Time Resolved Fluorescence). The IC50 of the compound was calculated from the percent of control or percent inhibition of Aβ40 as a function of the concentration of the test compound.
The HTRF to detect Aβ40 was performed in 384 well plates (Costar 3658). The antibody pair that were used to detect Aβ40 from cell supernatants were ConfAb40 antibody (Amgen in-house) and biotinylated 6E10 (BIOLEGEND). As an alternative to ConfAb40, a commercially available antibody, Anti-beta Amyloid 1-40 antibody [BDI350] from Abcam, Cambridge, Mass. 02139-1517 (Product code: ab20068), may be used in this assay. The concentrations were 0.35 μg/mL of ConfAb40 antibody and 1.33 μg/mL of 6E10-biotinylated antibody, as well as 4.5 μg/mL of Streptavidin Allophycocyanin Conjugate (ThermoFisher Scientific) in HTRF Buffer ([…], 1% BSA, 0.5% Tween 20).
The conditioned media was incubated with above antibodies and Streptavidin Allophycocyanin Conjugate for 30-60 minutes at 23° C. The final readout was performed on Envision from PerkinElmer.
Target sequence in this assay (P56817 46-501, species assumed): as the sequence (P56817 46-501) above
Background: TR-FRET usually uses a lanthanide donor and a delayed reading to cut background.

The test system of series [3] is Aβ peptide. As to conditions: nonhuman primates; cited from earlier work.
The conditions of series [4]: cited from earlier work.
Series [5] deals with Aβ peptide. As to conditions: oral dose of 95 mg once daily; cited from earlier work.
Series [6] relates to pigment epithelium of the rat's eye. Particulars: higher compound dose given for three months; cited from earlier work.
The subject of series [7] is Aβ peptide. As to conditions: sustained and dose-dependent; cited from earlier work.
Where [8] appears, read: Aβ40, 24 h incubation, read-out: BACE1 Cell IC50.

SMILES strings stand for the structures. Where only a bound is given, the exact number is not on record here.

Chain of human recombinant BACE2 (Q9Y5Z0 63-518): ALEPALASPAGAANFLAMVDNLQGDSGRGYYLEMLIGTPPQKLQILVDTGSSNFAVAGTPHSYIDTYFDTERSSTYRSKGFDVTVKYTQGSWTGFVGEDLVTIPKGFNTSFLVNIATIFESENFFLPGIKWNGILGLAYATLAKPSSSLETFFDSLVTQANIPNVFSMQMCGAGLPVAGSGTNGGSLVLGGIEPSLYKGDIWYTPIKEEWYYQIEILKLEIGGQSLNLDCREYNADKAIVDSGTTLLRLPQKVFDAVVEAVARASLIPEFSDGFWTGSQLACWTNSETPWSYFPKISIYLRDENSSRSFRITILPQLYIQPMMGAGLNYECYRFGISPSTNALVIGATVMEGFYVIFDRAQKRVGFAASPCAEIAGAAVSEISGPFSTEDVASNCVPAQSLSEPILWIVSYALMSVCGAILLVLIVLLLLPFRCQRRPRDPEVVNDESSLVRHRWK
Chain of Recombinant CatD (P07339 65-412): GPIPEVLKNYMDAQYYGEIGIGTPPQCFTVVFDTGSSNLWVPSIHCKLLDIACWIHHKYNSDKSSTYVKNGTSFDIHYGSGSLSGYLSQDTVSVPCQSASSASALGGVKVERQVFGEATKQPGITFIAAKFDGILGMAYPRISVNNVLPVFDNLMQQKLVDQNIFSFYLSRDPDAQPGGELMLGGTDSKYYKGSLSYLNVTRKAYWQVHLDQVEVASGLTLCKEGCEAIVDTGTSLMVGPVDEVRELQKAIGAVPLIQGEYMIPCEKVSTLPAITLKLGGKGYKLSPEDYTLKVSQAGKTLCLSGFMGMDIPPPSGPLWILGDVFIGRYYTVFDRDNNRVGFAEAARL

Turning to `Cc1cc(OCc2ncco2)cnc1C#Cc1ccc(F)c([C@@]2(C)N=C(N)S[C@@]3(C(=O)N(C)C)C[C@H]32)c1` [Example 131, (1S,5S,6S)-3-amino-5-(2-fluoro-5-((3-methyl-5-(oxazol-2-ylmethoxy)pyridin-2-yl)ethynyl)phenyl)-N,N,5-trimethyl-2-thia-4-azabicyclo[4.1.0]hept-3-ene-1-carboxamide], the IC50 (as a rule, the concentration at which inhibition is half-maximal) on Recombinant CatD worked out at 995000 nM; at human recombinant BACE2, 2180 nM; at BACE1 [1], 41 nM; at BACE1 [2] (setting [8]) it was 53 nM.

As for `CN(C)C(=O)[C@]12C[C@H]1[C@@](C)(c1cc(C#CC3CC3)ccc1F)N=C(N)S2` [Example 132, (1S,5S,6S)-3-amino-5-(5-(cyclopropylethynyl)-2-fluorophenyl)-N,N,5-trimethyl-2-thia-4-azabicyclo[4.1.0]hept-3-ene-1-carboxamide], the half-inhibitory concentration (IC50) was 46800 nM at Recombinant CatD, 7 nM on human recombinant BACE2, 20 nM at BACE1 [1] and 59 nM at BACE1 [2] (setting [8]).

In the case of `COC[C@]12CC1[C@@](C)(c1cc(C#Cc3ccc(C#N)cn3)ccc1F)N=C(N)S2` (stereo partly drawn) [Example 133, 6-((3-((1S,5S)-3-amino-1-(methoxymethyl)-5-methyl-2-thia-4-azabicyclo[4.1.0]hept-3-en-5-yl)-4-fluorophenyl)ethynyl)nicotinonitrile], the IC50 on Recombinant CatD was more than 400000 nM; at human recombinant BACE2 it was 2320 nM; on BACE1 [1] it was 97 nM; at BACE1 [2] it was 59 nM.

For the compound `COC[C@]12CC1[C@@](C)(c1cc(C#Cc3ncc(C#N)cc3C)ccc1F)N=C(N)S2` (stereo partly drawn) [Example 135, 6-((3-((1S,5S)-3-amino-1-(methoxymethyl)-5-methyl-2-thia-4-azabicyclo[4.1.0]hept-3-en-5-yl)-4-fluorophenyl)ethynyl)-5-methylnicotinonitrile], the concentration for half-maximal inhibition (IC50) was more than 400000 nM at Recombinant CatD, 1460 nM on human recombinant BACE2, 23 nM at BACE1 [1] and 33 nM against BACE1 [2].

On to `Cc1cc(C#N)cnc1C#Cc1cnc(F)c([C@@]2(C)N=C(N)S[C@@]3(C(=O)N4CCOCC4)CC32)c1` (stereo partly drawn) [Example 136, 6-((5-((1S,5S)-3-amino-5-methyl-1-(morpholine-4-carbonyl)-2-thia-4-azabicyclo[4.1.0]hept-3-en-5-yl)-6-fluoropyridin-3-yl)ethynyl)-5-methylnicotinonitrile], for which the IC50 on Recombinant CatD was more than 400000 nM; at human recombinant BACE2 it was 974 nM; on BACE1 [1] it was 37 nM; at BACE1 [2], 181 nM.

For the compound `Cc1cc(C#N)cnc1C#Cc1cnc(F)c([C@@]2(C)N=C(N)S[C@@]3(C(=O)N4CCCC4)CC32)c1` (stereo partly drawn) [Example 137, 6-((5-((1S,5S)-3-amino-5-methyl-1-(pyrrolidine-1-carbonyl)-2-thia-4-azabicyclo[4.1.0]hept-3-en-5-yl)-6-fluoropyridin-3-yl)ethynyl)-5-methylnicotinonitrile], the IC50 at Recombinant CatD was more than 400000 nM; on human recombinant BACE2, 474 nM; at BACE1 [1] it was 11 nM; against BACE1 [2], 35 nM.

For `NC1=N[C@](CF)(c2cc(C#Cc3cc(Cl)ccn3)ccc2F)[C@@H]2C[C@]2(CF)S1` [Example 138, (1S,5S,6S)-5-(5-((4-chloropyridin-2-yl)ethynyl)-2-fluorophenyl)-1,5-bis(fluoromethyl)-2-thia-4-azabicyclo[4.1.0]hept-3-en-3-amine], the IC50 at Recombinant CatD was found to be 903000 nM; on human recombinant BACE2 it was 77 nM; on BACE1 [1] it was 1120 nM; on BACE1 [2], 4850 nM.

For `C[C@H]1OC[C@]2(c3cc(NC(=O)c4cnc(C(F)F)cn4)ccc3F)N=C(N)SC[C@H]12` [Example E2609], the “reduction in Aβ peptide levels in the CSF and plasma” value with Aβ peptide [3] is given as “significant reduction”. In addition, the clinical safety concerns result in series [4] (repeated doses up to 200 mg, phase I clinical trial) was “did not show clinical significant safety concerns”.

For `C[C@@]1(c2cc(NC(=O)c3ccc(C#N)cn3)ccc2F)C=CSC(N)=N1` [JNJ-54861911], in the series on Aβ peptide [5], the “Aβ peptide reduction in CSF” value was “up to 95%”.

Regarding `C[C@@]1(c2cc(-c3cncnc3)c(F)cc2F)CCSC(N)=N1` [LY 2811376], the eye toxicity finding result in series [6] is recorded as “damaged the pigment epithelium of the rat's eye”.

Consider `CN1C(=N)N[C@](C)(c2cc(NC(=O)c3ccc(F)cn3)ccc2F)CS1(=O)=O` [MK-8931], for which the “CSF Aβ peptide concentrations” value in the series with Aβ peptide [7] was “significantly reduced”. For the same compound, in [4] (phase I clinical trials), the safety profile entry is given as “excellent safety profile with no immediately noticeable side effects”.

These data come from patent publication US10889581B2, “Cyclopropyl fused thiazine derivatives as beta-secretase inhibitors and methods of use” (AMGEN INC., priority 2016, dated 2021).
